According to paper PMC8095338 (Neuro-oncology Advances, 2021):
“And” between values parts separate entries of the source, which are not always exact repeats. Equal values may be shown once. Read-outs that look alike come from different tables or passages of the source.

Tests used:
[1] = Tissue PK, LC-MS/MS; type: in vivo, minipig; settings: for concentration at 2 h: po
Description: (§1) WT (n = 8) and NF1 (n = 8) minipigs received a single human equivalent oral dose of 450 mg (7.3 mg/kg). Untreated WT (n = 4) and NF1 (n = 4) minipigs were also enrolled as controls. All animals were euthanized 2 h after drug administration. Tissue samples were collected from each animal at the same approximate locations and divided for analysis.
Selumetinib PK studies were performed in plasma, skin, sciatic nerve, optic nerve, and brain. Plasma isolation was performed as described in a previous study.[13] […] Tissues were harvested and immediately transferred to cryovials and stored at −80°C until analysis.
Standard curves and controls were generated using corresponding untreated tissue. Skin tissue was treated with collagenase, and all organ tissues were homogenized. Liquid extraction with ethyl acetate was then performed, followed by analysis. […] The chromatographic separation was performed as described.[13] Mass spectrometric detection was performed using multiple reaction monitoring in positive ionization mode. […] Ion source gases 1 and 2 were set at 50 and 50 psi, respectively; the curtain gas was at 20 psi and the collision gas at 4 psi. […] Data acquisition was performed with analyst 1.4.1 software (MDS-SCIEX).

[2] = cited from earlier work; for maximum tolerated dose: twice daily
[3] = Dose-finding study, plasma PK in wild-type minipigs; type: in vivo, minipig; settings: for Cmax: female, WT minipig, plasma (data not shown)
Description: This was conducted to determine the dose required to reach the human equivalent therapeutic exposure. Human equivalent doses of 50, 75, 300, and 600 mg were tested. Each dose was administered orally to a 5-month-old wild-type female minipig. Blood was collected immediately prior to drug administration (T = 0) and 1, 2, 6, and 24 h after drug administration.

[4] = tested on: DUSP6 and FOS; test: Transcript biomarkers of MEK inhibition in tissues (RT-PCR); type: in vivo, minipig; settings: skin, sciatic nerve, optic nerve and cerebral cortex of all treated minipigs, 2 h after single oral 7.3 mg/kg
Description: as §1
For RNA profiling, tissues were homogenized using ceramic homogenizers (Agilent 5982–9311) and a Beadblaster 24 (Benchmark D2400) for 3 cycles of 30 s each. RNA was extracted from all tissues using the RNeasy Mini kit (QIAGEN 74104) and RNA concentration and quality was measured by NanoDrop (Thermo). Analysis of transcript biomarkers of MEK inhibition was performed using the Fluidigm platform by Reverse Transcription, preamplification with pooled primers and Real Time-PCR on the Juno and BioMark using the following pig TaqMan primers (DUSP6-Ss06941845_m1; FOS -Ss03390402_m1; normalized to the average of pig housekeeping genes (B2M/Ss03391154_m1; HPRT1/Ss03388274_m1; PPIA/Ss03394782_g1; RPL13A/Ss03376908_u1; UBC/Ss03374343_g1, TFRC/Ss03391240_m1). Data were then normalized to the average of the control untreated group from matching WT or NF1 background (Log2 fold change, -ddCt).

[5] = tested on: p-ERK; test: Immunohistochemistry for p-ERK in minipig tissues; type: in vivo
Description: Formalin-fixed paraffin-embedded minipig tissue including cerebral cortex, cross sections of optic nerve and sciatic nerve, and skin were sectioned. Immunohistochemical staining for phosphor-p44/p42 MAPK (ERK1/2) (Thr202/Tyr204) (Cell Signaling Technology Catalog #4370, Rabbit mAb, 1:100 dilution) was performed using 5 μm sections on a Thermo Fisher Scientific Autostainer 360 (Thermo Fisher Scientific). […] In the skin, epidermis was scored as no (0) or low (1) (<20 epidermal cells per 400× magnification) or high (2) (>20 epidermal cells per 400× magnification) immunoreactivity.

[6] = 2 h after single oral 7.3 mg/kg, P = .03
[7] = NF1 minipigs n = 8, 2 h after single oral 7.3 mg/kg
[8] = WT minipigs n = 8, 2 h after single oral 7.3 mg/kg
[9] = all 16 minipigs, 2 h after single oral 7.3 mg/kg
[10] = all 16 minipigs, 2 h after single oral 7.3 mg/kg, 7.3 mg/kg
[11] = individual NF1/F minipigs, 2 h after single oral 7.3 mg/kg, 7.3 mg/kg
[12] = individual NF1/M minipigs, 2 h after single oral 7.3 mg/kg, 7.3 mg/kg
[13] = individual WT/F minipigs, 2 h after single oral 7.3 mg/kg, 7.3 mg/kg
[14] = individual WT/M minipigs, 2 h after single oral 7.3 mg/kg, 7.3 mg/kg

Cn1cnc2c(F)c(Nc3ccc(Br)cc3Cl)c(C(=O)NOCCO)cc21 [selumetinib]
mean selumetinib concentration in cerebral cortex, NF1 compared to WT minipigs [1, 6]: higher
mean selumetinib concentration in optic nerve, NF1 compared to WT minipigs [1, 6]: higher
Selumetinib concentration in tissues, Cerebral cortex, Range (NF1) [1, 7]: (20-105) ng/g
Selumetinib concentration in tissues, Optic nerve, Range (NF1) [1, 7]: (4-101) ng/g
Selumetinib concentration in tissues, Sciatic nerve, Range (NF1) [1, 7]: (5-36) ng/g
Selumetinib concentration in tissues, Skin, Range (NF1) [1, 7]: (14-155) ng/g
Selumetinib concentration in tissues, Cerebral cortex, Range (WT) [1, 8]: (15-76) ng/g
Selumetinib concentration in tissues, Optic nerve, Range (WT) [1, 8]: (7-46) ng/g
Selumetinib concentration in tissues, Sciatic nerve, Range (WT) [1, 8]: (6-51) ng/g
Selumetinib concentration in tissues, Skin, Range (WT) [1, 8]: (9-111) ng/g
Selumetinib concentration in tissues, Cerebral cortex, Range (All) [1, 9]: (15-105) ng/g
Selumetinib concentration in tissues, Optic nerve, Range (All) [1, 9]: (4-101) ng/g
Selumetinib concentration in tissues, Sciatic nerve, Range (All) [1, 9]: (5-51) ng/g
Selumetinib concentration in tissues, Skin, Range (All) [1, 9]: (9-155) ng/g
Selumetinib concentration in tissues, Cerebral cortex, Median (All) [1, 10]: 51 ng/g
Selumetinib concentration in tissues, Optic nerve, Median (All) [1, 10]: 36 ng/g
Selumetinib concentration in tissues, Sciatic nerve, Median (All) [1, 10]: 25 ng/g
Selumetinib concentration in tissues, Skin, Median (All) [1, 10]: 24 ng/g
Selumetinib concentration in tissues, Cerebral cortex [1, 11]: 63 ng/g and 105 ng/g and 101 ng/g and 20 ng/g
Selumetinib concentration in tissues, Optic nerve [1, 11]: 43 ng/g and 81 ng/g and 101 ng/g and 4 ng/g
Selumetinib concentration in tissues, Sciatic nerve [1, 11]: 20 ng/g and 10 ng/g and 17 ng/g and 5 ng/g
Selumetinib concentration in tissues, Skin [1, 11]: 36 ng/g and 155 ng/g and 14 ng/g and 17 ng/g
Selumetinib concentration in tissues, Cerebral cortex [1, 12]: 67 ng/g and 83 ng/g and 28 ng/g and 64 ng/g
Selumetinib concentration in tissues, Optic nerve [1, 12]: 59 ng/g and 34 ng/g
Selumetinib concentration in tissues, Sciatic nerve [1, 12]: 36 ng/g and 33 ng/g
Selumetinib concentration in tissues, Skin [1, 12]: 16 ng/g and 79 ng/g and 108 ng/g and 26 ng/g
Selumetinib concentration in tissues, Cerebral cortex [1, 13]: 26 ng/g and 42 ng/g and 76 ng/g and 47 ng/g
Selumetinib concentration in tissues, Optic nerve [1, 13]: 24 ng/g and 26 ng/g and 19 ng/g and 46 ng/g
Selumetinib concentration in tissues, Sciatic nerve [1, 13]: 46 ng/g and 38 ng/g and 36 ng/g and 16 ng/g
Selumetinib concentration in tissues, Skin [1, 13]: 22 ng/g and 111 ng/g and 81 ng/g and 12 ng/g
Selumetinib concentration in tissues, Cerebral cortex [1, 14]: 20 ng/g and 15 ng/g and 54 ng/g and 44 ng/g
Selumetinib concentration in tissues, Optic nerve [1, 14]: 35 ng/g and 7 ng/g and 32 ng/g and 36 ng/g
Selumetinib concentration in tissues, Sciatic nerve [1, 14]: 6 ng/g and 9 ng/g and 51 ng/g and 15 ng/g
Selumetinib concentration in tissues, Skin [1, 14]: 9 ng/g and 19 ng/g and 32 ng/g
concentration at 2 h ([1]; male, minipig, optic nerve, 7.3 mg/kg, Selumetinib concentration in tissues, Optic nerve, individual NF1/M minipigs, 2 h after single oral 7.3 mg/kg): 43 ng/g
concentration at 2 h ([1]; male, minipig, sciatic nerve, 7.3 mg/kg, Selumetinib concentration in tissues, Sciatic nerve, individual NF1/M minipigs, 2 h after single oral 7.3 mg/kg): 29 ng/g
Kp at 2 h ([1]; minipig, brain / plasma, minipigs, single oral 7.3 mg/kg, read-out: median brain–plasma ratio): 0.1
concentration at 2 h ([1]; minipig, cerebral cortex, 7.3 mg/kg, Selumetinib concentration in tissues, Cerebral cortex, Median (All), all 16 minipigs, 2 h after single oral 7.3 mg/kg): 66 ng/g
concentration at 2 h ([1]; minipig, cerebral cortex, 7.3 mg/kg, Selumetinib concentration in tissues, Cerebral cortex, Median (NF1), NF1 minipigs n = 8, 2 h after single oral 7.3 mg/kg): 66 ng/g
concentration at 2 h ([1]; minipig, cerebral cortex, 7.3 mg/kg, Selumetinib concentration in tissues, Cerebral cortex, Median (WT), WT minipigs n = 8, 2 h after single oral 7.3 mg/kg): 43 ng/g
concentration at 2 h ([1]; minipig, optic nerve, 7.3 mg/kg, Selumetinib concentration in tissues, Optic nerve, Median (All), all 16 minipigs, 2 h after single oral 7.3 mg/kg): 43 ng/g
concentration at 2 h ([1]; minipig, optic nerve, 7.3 mg/kg, Selumetinib concentration in tissues, Optic nerve, Median (NF1), NF1 minipigs n = 8, 2 h after single oral 7.3 mg/kg): 43 ng/g
concentration at 2 h ([1]; minipig, optic nerve, 7.3 mg/kg, Selumetinib concentration in tissues, Optic nerve, Median (WT), WT minipigs n = 8, 2 h after single oral 7.3 mg/kg): 29 ng/g
concentration at 2 h ([1]; minipig, 7.3 mg/kg, selumetinib concentration, range over all tissues, cerebral cortex, optic nerve, sciatic nerve, skin, all minipigs, 2 h after single oral 7.3 mg/kg): 4 to 155 ng/g
concentration at 2 h ([1]; minipig, sciatic nerve, 7.3 mg/kg, Selumetinib concentration in tissues, Sciatic nerve, Median (All), all 16 minipigs, 2 h after single oral 7.3 mg/kg): 23 ng/g
concentration at 2 h ([1]; minipig, sciatic nerve, 7.3 mg/kg, Selumetinib concentration in tissues, Sciatic nerve, Median (NF1), NF1 minipigs n = 8, 2 h after single oral 7.3 mg/kg): 25 ng/g
concentration at 2 h ([1]; minipig, sciatic nerve, 7.3 mg/kg, Selumetinib concentration in tissues, Sciatic nerve, Median (WT), WT minipigs n = 8, 2 h after single oral 7.3 mg/kg): 26 ng/g
concentration at 2 h ([1]; minipig, skin, 7.3 mg/kg, Selumetinib concentration in tissues, Skin, Median (All), all 16 minipigs, 2 h after single oral 7.3 mg/kg): 34 ng/g
concentration at 2 h ([1]; minipig, skin, 7.3 mg/kg, Selumetinib concentration in tissues, Skin, Median (NF1), NF1 minipigs n = 8, 2 h after single oral 7.3 mg/kg): 56 ng/g
concentration at 2 h ([1]; minipig, skin, 7.3 mg/kg, Selumetinib concentration in tissues, Skin, Median (WT), WT minipigs n = 8, 2 h after single oral 7.3 mg/kg): 21 ng/g
maximum tolerated dose ([2]; adult patients with advanced solid malignancy): 75 mg
maximum tolerated dose ([2]; pediatric patients with plexiform neurofibroma or low-grade glioma): 25 mg/m^2
confirmed partial response ([2]; pediatric patients, 25 mg/m^2 twice daily): 70 % of pediatric patients
dose proportionality of selumetinib exposure ([3]; WT minipigs, from 75 to 300 mg human equivalent dose): dose proportional
Cmax ([3]; single oral 300 mg human equivalent dose): 1000 ng/mL
Cmax ([3]; single oral 600 mg human equivalent dose): 670 ng/mL
DUSP6 transcript expression [4]: downregulated
FOS transcript expression [4]: downregulated
p-ERK by IHC in glial cells ([5]; NF1 minipig tissues, treated vs untreated): reduction in ERK phosphorylation
treated NF1 animals without reduction in ERK phosphorylation by IHC ([5]; cerebral white matter tracts, NF1 minipigs): 4 of 8
